Measurements taken from PubChem BioAssay (NCI).
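In this assay, cells in 96-well plates receive the compound at five concentrations for 48 hours. Endpoints are linearly interpolated between the surrounding concentrations. At the GI50, growth is halved. TGI is the concentration that stops growth completely.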

Key:
Assay in all cases: growth of human tumour cells (NCI), 48 h
UACC-62 melanoma = test system: UACC-62 melanoma
NCI-H522 lung = test system: NCI-H522 lung
LOX IMVI melanoma = test system: LOX IMVI melanoma
HL-60(TB) leukemia = test system: HL-60(TB) leukemia
KM12 colon = test system: KM12 colon
IGROV1 ovarian = test system: IGROV1 ovarian
OVCAR-3 ovarian = test system: OVCAR-3 ovarian
EKVX NSCLC = test system: EKVX NSCLC
U251 CNS = test system: U251 CNS
PC-3 prostate = test system: PC-3 prostate

SMILES | GI50 (UACC-62 melanoma) | TGI (UACC-62 melanoma) | GI50 (NCI-H522 lung) | TGI (NCI-H522 lung) | GI50 (LOX IMVI melanoma) | TGI (LOX IMVI melanoma) | GI50 (HL-60(TB) leukemia) | TGI (HL-60(TB) leukemia) | GI50 (KM12 colon) | TGI (KM12 colon) | GI50 (IGROV1 ovarian) | TGI (IGROV1 ovarian) | GI50 (OVCAR-3 ovarian) | TGI (OVCAR-3 ovarian) | GI50 (EKVX NSCLC) | TGI (EKVX NSCLC) | GI50 (U251 CNS) | TGI (U251 CNS) | GI50 (PC-3 prostate) | TGI (PC-3 prostate)
Cc1csc(Nc2nc(-c3cccc(Br)c3)nc(C(Cl)(Cl)Cl)n2)n1 | 3.35 µM | > 100 µM | > 100 µM | > 100 µM | > 100 µM | > 100 µM | 1.04 µM | 3.96 µM | 1.58 µM | 4.82 µM | > 100 µM | > 100 µM | 1.11 µM | 3.24 µM | 1.61 µM | 5.35 µM | 1.83 µM | > 100 µM | 1.92 µM | > 100 µM
Ic1ccc(-n2nnnc2-c2cnoc2-c2ccccc2)cc1 | 29.3 µM | > 83.6 µM | 46.3 µM | > 100 µM | 49.3 µM | > 100 µM | 78.9 µM | > 100 µM | 47.1 µM | > 89.6 µM | > 73.6 µM | > 100 µM | 46.4 µM | > 100 µM | 7.49 µM | > 21.7 µM | 44.8 µM | > 100 µM | > 34.4 µM | > 71.4 µM
COc1cc(C2c3cc4c(cc3C(O)C(CO)C2CO)OCO4)cc(OC)c1OC (configuration not stated) | 0.534 µM | > 100 µM | 0.38 µM | – | 0.656 µM | > 100 µM | 0.322 µM | – | 0.494 µM | > 47 µM | 0.551 µM | > 25.9 µM | 0.372 µM | 1.94 µM | 1.27 µM | > 71 µM | 0.587 µM | > 100 µM | 0.596 µM | > 100 µM
COc1c(OC)c(OC)c(C(=O)/C=C/c2ccccc2)c(OC)c1OC | – | 24.2 µM | – | 14.7 µM | – | 36.7 µM | – | 38.2 µM | – | 16.8 µM | – | 27.9 µM | – | 25.1 µM | – | 35.5 µM | – | 20.5 µM | – | 31.1 µM
Cc1ccc(Cl)cc1Nc1nc(C(F)(F)F)ccc1C(=O)N1CCN(c2cccc(Cl)c2)CC1 | 69.4 µM | > 100 µM | 89.7 µM | > 100 µM | > 100 µM | > 100 µM | 94.4 µM | > 100 µM | > 100 µM | > 100 µM | 39.2 µM | > 100 µM | 8.27 µM | > 100 µM | 86.4 µM | > 100 µM | > 100 µM | > 100 µM | 21.7 µM | > 100 µM
Cc1ccc(-c2nc3ccc([N+](=O)[O-])cc3[nH]2)cc1 | – | > 100 µM | – | > 100 µM | – | > 100 µM | – | > 100 µM | – | > 100 µM | – | > 100 µM | – | > 100 µM | – | > 100 µM | – | > 100 µM | – | > 100 µM
Cc1ccc(/C=C/c2c(C(=O)/C=C/c3ccc(C(F)(F)F)cc3)c(C)nc3ccccc23)cc1 | 1.55 µM | 3.02 µM | 1.33 µM | 4.35 µM | 1.12 µM | 2.33 µM | 1.25 µM | 3.66 µM | 2.06 µM | 5.03 µM | 0.6 µM | 2.02 µM | 1.55 µM | 3.82 µM | 1.53 µM | 3.36 µM | 1.47 µM | 3.13 µM | 1.64 µM | 3.68 µM
COC1C(O)=C2C(=O)O/C(C)=C/C=C/C=C/C=C\CC(c3ccccc3)NC(=O)\C=C/C=C\C=C\C=C\[C@@]2(C)[C@@H]1O (some centres not stated) | – | 0.551 µM | – | < 0.0285 µM | – | 1.09 µM | – | 0.0421 µM | – | 0.165 µM | – | 0.287 µM | – | 0.271 µM | – | 0.279 µM | – | 0.0195 µM | – | 0.103 µM
Cc1nc2cnc(N)c(C#Cc3cncc(C(=O)Nc4ccc(CN5CCN(C)CC5)c(C(F)(F)F)c4)c3)c2nc1C | 0.116 µM | 1.07 µM | 0.276 µM | 3.86 µM | 0.101 µM | 1.05 µM | 0.138 µM | 3.8 µM | – | 1.44 µM | 0.266 µM | 1.21 µM | 0.824 µM | 9.66 µM | 0.739 µM | 12.6 µM | 2.52 µM | 19.5 µM | 1.48 µM | 17.4 µM
